As usually defined, the Ki is a measure of affinity in units of concentration, obtained from inhibition or displacement.

The target in the assay is Sphingosine kinase 1 (Homo sapiens, UniProt Q9NYA1). The experiment in a line: Scintillation Proximity Assay: SphK activity was measured by a scintillation proximity assay as previously described [1], the disclosure of which is incorporated herein. Briefly, recombinant SphK1 or SphK2 were expressed in Sf9 insect cells, crude homogenates were prepared and incubated in 96 well FlashPlates (Perkin-Elmer) in a buffer containing D-erythro-sphingosine and γ-[33P]ATP. The [33P]S1P …. A general note: In a scintillation proximity assay essentially only radioactivity close to the scintillant gives light.
Chain of Sphingosine kinase 1 (Q9NYA1 whole entry): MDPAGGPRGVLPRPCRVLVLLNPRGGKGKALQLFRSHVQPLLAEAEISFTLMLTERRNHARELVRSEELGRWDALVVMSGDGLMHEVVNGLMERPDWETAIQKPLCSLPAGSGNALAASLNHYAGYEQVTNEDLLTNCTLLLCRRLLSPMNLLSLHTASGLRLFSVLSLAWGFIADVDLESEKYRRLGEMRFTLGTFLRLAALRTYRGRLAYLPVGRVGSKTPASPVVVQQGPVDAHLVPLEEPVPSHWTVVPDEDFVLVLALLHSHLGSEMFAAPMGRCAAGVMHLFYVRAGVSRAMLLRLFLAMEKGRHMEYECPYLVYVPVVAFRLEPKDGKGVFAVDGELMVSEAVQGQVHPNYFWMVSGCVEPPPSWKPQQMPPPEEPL
`CCCCCCCCCCCc1cccc(-c2nnc(C3(C(=N)N)CC3)o2)c1`: the Ki is under 1000 nM.

Take `CCCCCCCCCCCc1cccc(-c2nc(C3(C(=N)N)CC3)n[nH]2)c1`: the Ki was under 1000 nM.

Regarding `CCCCCCCCCCCc1ccc(F)c(-c2nnc(C3(C(=N)N)CC3)o2)c1`, the Ki was under 1000 nM.

For the compound `N=C(N)C1(c2nc(-c3cccc(CCCCCCOCC4CCCCC4)c3)no2)CC1`, the Ki is under 1000 nM.

Consider `CCCCCCCCCCCc1ccc(C)c(-c2nnc(C3(C(=N)N)CC3)o2)c1`, for which the Ki is under 1000 nM.

For the compound `CCCCCCCCCCCCc1cccc(-c2noc(C3(C(=N)N)CC3)n2)c1`, the Ki is under 1000 nM.

Turning to `N=C(N)C1(c2nnc(-c3ccc(CCCCCCCOCC4CCCCC4)cc3)o2)CC1`, the Ki was under 1000 nM.

Consider `CCCCCCCCCCCc1cc(-c2nnc(C3(C(=N)N)CC3)o2)ccc1C`, for which the Ki is under 1000 nM.

Take `N=C(N)N1CCC[C@H]1c1nc(-c2ccc(CS(=O)(=O)c3ccccc3)cc2)no1`: the Ki was over 10000 nM.

In the case of `CCCCCCCCCCc1ccc(/C=C/C2(C(=N)N)CC2)cc1`, the Ki was over 10000 nM.

Take `N=C(N)C1(c2nnc(-c3cccc(CCCCCCOCC4CCCCC4)c3)o2)CC1`: the Ki is under 1000 nM.

Take `CCCCCCCCCCCc1cc(-c2noc(C3(C(=N)N)CC3)n2)ccc1C`: the Ki is under 1000 nM.

With `CCCCCCCCCCCc1cc(-c2nnc(C3(C(=N)N)CC3)o2)ccc1F`, the Ki is under 1000 nM.

Turning to `N=C(N)C1(c2nc(-c3cccc(CCc4cccc(CCC5CCCCC5)c4)c3)no2)CC1`, the Ki is under 1000 nM.

(Values after ChEMBL document CHEMBL5725362, “Long chain base sphingosine kinase inhibitors” (2017).)
